Holding throughout (assay): inhibition of tumour cell growth, NCI panel, 48 h
Assay [1] concerns 786-0 renal.
For assay [2], the system named is SF-295 CNS.
The subject of assay [3] is PC-3 prostate.
Assay [4] has as its system MDA-MB-435.
The test system of assay [5] is RXF 393 renal.
The subject of assay [6] is TK-10 renal.
Assay [7] concerns CCRF-CEM leukemia.
For assay [8], the system named is SK-MEL-28 melanoma.
The test system of assay [9] is MCF7 breast.
Assay [10] has as its system OVCAR-8 ovarian.
Assay [11] has as its system SK-MEL-5 melanoma.
Assay [12] concerns MOLT-4 leukemia.

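Values below derive from 48-hour exposures of cells grown in 96-well plates, with endpoints linearly interpolated between the two concentrations bracketing the appropriate inhibition level. TGI is the concentration that stops growth completely.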

`COc1cc2cc(C(=O)N3CC(COS(C)(=O)=O)c4ccc(NC(=O)OCc5ccccc5)cc43)[nH]c2c(OC)c1OC` (configuration not stated): the TGI in assay [1], in assay [2], in [3], in assay [4], in assay [5] and in assay [6] was greater than 100 µM in each case. The TGI in [7], in assay [8], in assay [9], in [10], in assay [11] and in assay [12] was greater than 100 µM each time.
On to `O=C(Nc1sccc1S(=O)(=O)c1ccc(Cl)cc1)c1ccc(F)cc1F`, for which the TGI in assay [1] was 36.5 µM; in [2], 65.3 µM; in assay [3], greater than 100 µM; in assay [4], greater than 100 µM; in [5] it was 46.2 µM; in assay [6], 42.7 µM. Further, the TGI was 37.8 µM in [7]; greater than 100 µM in assay [8]; greater than 100 µM in assay [9]; greater than 100 µM in assay [10]; greater than 100 µM in assay [11]; 56.7 µM in assay [12].
In the case of `Fc1cccc(F)c1C1SCc2nc3cc(Cl)c(Cl)cc3n21` (configuration not stated), the TGI in assay [1], in assay [2], in assay [3], in [4], in [5] and in assay [6] was greater than 100 µM in each case. Besides, the TGI in [7], in assay [8], in [9], in [10], in [11] and in [12] was greater than 100 µM in each case.
Take `O=C(c1ccccc1)c1ccc2nc(-c3c(Cl)c(Cl)c(Cl)c(Cl)c3-c3nnc(-c4ccccc4)o3)[nH]c2c1`: the TGI in [1] is greater than 100 µM; in assay [2] it was 73.9 µM; in assay [3] it was greater than 100 µM; in assay [4], greater than 100 µM; in [5], 47.1 µM; in assay [6], greater than 100 µM. The TGI is greater than 100 µM in assay [7]; greater than 100 µM in assay [8]; greater than 100 µM in assay [9]; greater than 100 µM in assay [10]; 54.1 µM in assay [11]; greater than 100 µM in [12].
On to `FC(F)(F)c1cc(N(C2c3ccccc3C=Cc3ccccc32)P(Cl)Cl)cc(C(F)(F)F)c1`, for which the TGI in assay [1] is 35.5 µM; in [2] it was 41.8 µM; in assay [3], 78.1 µM; in assay [4] it was 64.9 µM; in assay [5] it was 27.1 µM; in assay [6], greater than 100 µM. Moreover, the TGI in assay [7] is 82.3 µM; in [8], 87.8 µM; in assay [9], 50 µM; in assay [10], 35.7 µM; in assay [11], 32.7 µM; in [12] it was 54.4 µM.
For the compound `CCOC(=O)/C(C(N)=O)=C(\O)C(=O)/C(Br)=C(\O)c1ccccc1`, the TGI was 29.7 µM in [1]; greater than 100 µM in [2]; 31.7 µM in assay [3]; 31.6 µM in assay [4]; 29.6 µM in assay [5]; 33.2 µM in assay [6]. Moreover, the TGI is 3.54 µM in [7]; 34.9 µM in assay [8]; 36.9 µM in assay [9]; 39.5 µM in assay [10]; 30.5 µM in assay [11]; 8.33 µM in [12].
Take `C[C@@H]1[C@@H](C)C(c2ccccc2)O[Si]1(C(C)(C)C)C(C)(C)C` (some centres not stated): the TGI in [1] was 29.4 µM; in assay [2] it was 30.2 µM; in assay [3] it was 33.1 µM; in [4] it was 76.3 µM; in assay [5], 31 µM; in assay [6], 29.9 µM. The TGI in [7] was 46.2 µM; in [8], greater than 66.7 µM; in assay [9], 31.9 µM; in assay [10], 33.8 µM; in [11], 31.5 µM; in assay [12], 33.9 µM.
Turning to `Cc1cc(-n2nnc(C(=O)O)c2-c2ccccc2)c2ccc(Cl)cc2n1`, the TGI in [1], in [2], in [3], in [4], in assay [5] and in assay [6] was greater than 100 µM throughout. For the same compound, the TGI in [7], in assay [8], in [9], in [10], in [11] and in assay [12] was greater than 100 µM in each case.
In the case of `CC(C)(C)OC(=O)[C@@H]1CCC(=O)N1C1(c2ccccc2)c2ccccc2-c2ccccc21`, the TGI in [1] was greater than 100 µM; in assay [2] it was 61.1 µM; in [3] it was greater than 100 µM; in [4], greater than 100 µM; in assay [5], 32.2 µM; in assay [6], greater than 100 µM. The TGI is 43.7 µM in assay [7]; 71.3 µM in [8]; greater than 100 µM in assay [9]; greater than 100 µM in [10]; 51.9 µM in [11]; 51.5 µM in assay [12].
As for `CC(C)(C)OC(=O)N/C(C=O)=C\C1CCCCC1`, the TGI in [1] was found to be 42.6 µM; in assay [2], 99.3 µM; in [3], 47.4 µM; in assay [4] it was 49.5 µM; in assay [5], 59.7 µM; in assay [6], 32.9 µM. Moreover, the TGI is greater than 100 µM in assay [7]; greater than 100 µM in assay [8]; 72.8 µM in assay [9]; 31.7 µM in [10]; 31.3 µM in assay [11]; 52 µM in assay [12].
Regarding `CNc1nnc(CCCCCCCCc2nnc(NC)o2)o1`, the TGI in assay [1] is 47 µM; in assay [2], greater than 100 µM; in [3], greater than 100 µM; in assay [4] it was greater than 100 µM; in [5], greater than 100 µM; in assay [6], greater than 100 µM. In addition, the TGI in assay [7] was 43 µM; in [8], greater than 100 µM; in assay [9], 38.3 µM; in [10], greater than 100 µM; in assay [11], greater than 100 µM; in assay [12], greater than 100 µM.

The values above are taken from PubChem BioAssay (NCI).
